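These data come from cells grown in 96-well plates and exposed to compound for 48 hours at five concentrations. At the GI50, growth is halved. TGI is the concentration that stops growth completely.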
Tests used:
Experiment in all cases: growth of human tumour cells (NCI), 48 h
[1] = test system: NCI/ADR-RES ovarian
[2] = test system: OVCAR-3 ovarian
[3] = test system: HL-60(TB) leukemia
[4] = test system: CAKI-1 renal
[5] = test system: SK-MEL-28 melanoma
[6] = test system: NCI-H522 lung
[7] = test system: U251 CNS
[8] = test system: MALME-3M melanoma
[9] = test system: MDA-MB-231 breast
[10] = test system: PC-3 prostate
[11] = test system: HT29 colon
[12] = test system: UACC-62 melanoma
[13] = test system: SW-620 colon
[14] = test system: SR leukemia
[15] = test system: T-47D breast
[16] = test system: EKVX NSCLC
[17] = test system: SNB-19 CNS
[18] = test system: HOP-92 NSCLC
[19] = test system: MOLT-4 leukemia
[20] = test system: RPMI-8226 leukemia
[21] = test system: HCT-15 colon
[22] = test system: A549 NSCLC
[23] = test system: SK-MEL-5 melanoma
[24] = test system: NCI-H23 lung
[25] = test system: SF-295 CNS
[26] = test system: OVCAR-4 ovarian
[27] = test system: DU-145 prostate
[28] = test system: HS 578T breast
[29] = test system: NCI-H226 lung
[30] = test system: NCI-H460 lung
[31] = test system: HOP-62 NSCLC
[32] = test system: HCC-2998 colon
[33] = test system: MCF7 breast
[34] = test system: K-562 leukemia
[35] = test system: RXF 393 renal
[36] = test system: MDA-MB-435
[37] = test system: SF-539 CNS
[38] = test system: HCT-116 colon
[39] = test system: ACHN renal
[40] = test system: OVCAR-5 ovarian
[41] = test system: IGROV1 ovarian
[42] = test system: SNB-75 CNS
[43] = test system: UACC-257 melanoma
[44] = test system: SN12C renal
[45] = test system: SK-OV-3 ovarian
[46] = test system: A498 renal
[47] = test system: UO-31 renal
[48] = test system: KM12 colon
[49] = test system: M14 melanoma
[50] = test system: OVCAR-8 ovarian
[51] = test system: BT-549 breast
[52] = test system: CCRF-CEM leukemia
[53] = test system: SF-268 CNS
[54] = test system: COLO 205 colon
[55] = test system: TK-10 renal
[56] = test system: 786-0 renal
[57] = test system: SK-MEL-2 melanoma
[58] = test system: LOX IMVI melanoma

`Cc1ccc(Nc2ccnc(Nc3cccc(C(N)=O)c3)n2)cc1O` gave a GI50 [1] greater than 18.7 µM, a TGI [1] greater than 25 µM and a GI50 [2] of 6.65 µM. For the same molecule, the TGI [2] was greater than 25 µM, the GI50 [3] was 8.1 µM and the TGI [3] was greater than 25 µM. It also gave a GI50 [4] of 4.11 µM, a TGI [4] of 19 µM and a GI50 [5] of 11.2 µM. The TGI [5] was greater than 25 µM, the GI50 [6] was 3.22 µM and the TGI [6] was greater than 15.1 µM. It also gave a GI50 [7] of 7.84 µM, a TGI [7] greater than 25 µM and a GI50 [8] of 6.27 µM. It also gave a TGI [8] greater than 25 µM, a GI50 [9] of 4.27 µM and a TGI [9] greater than 25 µM. It also gave a GI50 [10] of 5.42 µM, a TGI [10] greater than 25 µM and a GI50 [11] of 13.9 µM. The TGI [11] was greater than 25 µM, the GI50 [12] was 7.08 µM and the TGI [12] was greater than 25 µM. It also gave a GI50 [13] of 9.62 µM, a TGI [13] greater than 25 µM and a GI50 [14] of 11.3 µM. It also gave a TGI [14] greater than 25 µM, a GI50 [15] of 4.74 µM and a TGI [15] greater than 21.2 µM. For the same molecule, the GI50 [16] was 9.2 µM, the TGI [16] was greater than 25 µM and the GI50 [17] was 11.5 µM. The TGI [17] was greater than 25 µM, the GI50 [18] was 0.891 µM and the TGI [18] was 8.25 µM. The GI50 [19] was 10.5 µM, the TGI [19] was greater than 25 µM and the GI50 [20] was greater than 25 µM. For the same molecule, the TGI [20] was greater than 25 µM, the GI50 [21] was 7.16 µM and the TGI [21] was greater than 25 µM. For the same molecule, the GI50 [22] was 8.44 µM, the TGI [22] was greater than 25 µM and the GI50 [23] was 6.63 µM. The TGI [23] was greater than 21.6 µM, the GI50 [24] was 9.44 µM and the TGI [24] was greater than 25 µM. For the same molecule, the GI50 [25] was 7.69 µM, the TGI [25] was greater than 25 µM and the GI50 [26] was 6.19 µM. The TGI [26] was greater than 25 µM, the GI50 [27] was 7.14 µM and the TGI [27] was greater than 25 µM. For the same molecule, the GI50 [28] was 0.742 µM, the TGI [28] was 8.98 µM and the GI50 [29] was 5.43 µM. For the same molecule, the TGI [29] was greater than 23.7 µM, the GI50 [30] was 11.4 µM and the TGI [30] was greater than 25 µM. For the same molecule, the GI50 [31] was 5.5 µM, the TGI [31] was greater than 19 µM and the GI50 [32] was 12.6 µM. For the same molecule, the TGI [32] was greater than 25 µM, the GI50 [33] was 8.28 µM and the TGI [33] was greater than 25 µM. It also gave a GI50 [34] of 1.34 µM, a TGI [34] greater than 25 µM and a GI50 [35] of 0.895 µM. It also gave a TGI [35] of 4.84 µM, a GI50 [36] of 7.98 µM and a TGI [36] greater than 25 µM. It also gave a GI50 [37] of 3.46 µM, a TGI [37] of 11.1 µM and a GI50 [38] of 8.01 µM. For the same molecule, the TGI [38] was greater than 25 µM, the GI50 [39] was 4.32 µM and the TGI [39] was greater than 25 µM. It also gave a GI50 [40] of 10.2 µM, a TGI [40] greater than 25 µM and a GI50 [41] of 5.37 µM. The TGI [41] was 15.1 µM, the GI50 [42] was 0.431 µM and the TGI [42] was 3.93 µM. It also gave a GI50 [43] of 15.5 µM, a TGI [43] greater than 25 µM and a GI50 [44] of 3.7 µM. For the same molecule, the TGI [44] was greater than 25 µM, the GI50 [45] was 1.96 µM and the TGI [45] was 12.1 µM. For the same molecule, the GI50 [46] was 7.31 µM, the TGI [46] was greater than 25 µM and the GI50 [47] was 0.846 µM. It also gave a TGI [47] of 11.9 µM, a GI50 [48] of 7.27 µM and a TGI [48] greater than 25 µM. It also gave a GI50 [49] of 5.87 µM, a TGI [49] greater than 25 µM and a GI50 [50] of 6.51 µM. For the same molecule, the TGI [50] was greater than 25 µM, the GI50 [51] was 6.4 µM and the TGI [51] was greater than 25 µM. For the same molecule, the GI50 [52] was 7.99 µM, the TGI [52] was greater than 25 µM and the GI50 [53] was 3.84 µM. The TGI [53] was greater than 17.7 µM, the GI50 [54] was 10.1 µM and the TGI [54] was greater than 20.6 µM. For the same molecule, the GI50 [55] was 6.39 µM, the TGI [55] was 17.6 µM and the GI50 [56] was 8.09 µM. The TGI [56] was greater than 25 µM, the GI50 [57] was 8.45 µM and the TGI [57] was greater than 25 µM. It also gave a GI50 [58] of 3.02 µM and a TGI [58] of 7.22 µM.

`O=C(/C=C/c1cccs1)Nc1ncc(Cc2ccccc2F)s1` gave a GI50 [1] of 0.246 µM, a TGI [1] greater than 100 µM and a GI50 [2] of 0.216 µM. For the same molecule, the TGI [2] was 0.671 µM, the GI50 [3] was 0.213 µM and the TGI [3] was 0.589 µM. It also gave a GI50 [4] of 0.0753 µM, a TGI [4] greater than 100 µM and a GI50 [5] of 0.886 µM. For the same molecule, the TGI [5] was greater than 100 µM, the GI50 [6] was 0.194 µM and the GI50 [7] was 0.35 µM. The TGI [7] was greater than 100 µM, the GI50 [8] was 0.359 µM and the TGI [8] was greater than 100 µM. For the same molecule, the GI50 [9] was 0.611 µM, the TGI [9] was greater than 100 µM and the GI50 [10] was 0.261 µM. For the same molecule, the TGI [10] was greater than 100 µM, the GI50 [11] was 0.21 µM and the TGI [11] was greater than 100 µM. It also gave a GI50 [12] of 0.207 µM, a TGI [12] greater than 100 µM and a GI50 [13] of 0.159 µM. The TGI [13] was greater than 100 µM, the GI50 [14] was 0.0522 µM and the TGI [14] was greater than 100 µM. It also gave a GI50 [15] of 0.404 µM, a TGI [15] greater than 100 µM and a GI50 [16] of 0.412 µM. It also gave a TGI [16] greater than 100 µM, a GI50 [17] of 0.361 µM and a TGI [17] greater than 100 µM. For the same molecule, the GI50 [18] was 1.39 µM, the TGI [18] was greater than 100 µM and the GI50 [19] was 0.378 µM. It also gave a TGI [19] greater than 100 µM, a GI50 [20] of 0.33 µM and a TGI [20] greater than 100 µM. The GI50 [21] was 0.123 µM, the TGI [21] was greater than 100 µM and the GI50 [22] was 0.48 µM. For the same molecule, the TGI [22] was greater than 100 µM, the GI50 [23] was 0.242 µM and the TGI [23] was greater than 100 µM. For the same molecule, the GI50 [24] was 2.78 µM, the TGI [24] was greater than 100 µM and the GI50 [25] was 0.244 µM. The TGI [25] was greater than 100 µM, the GI50 [26] was 0.791 µM and the TGI [26] was greater than 100 µM. For the same molecule, the GI50 [27] was 0.3 µM, the TGI [27] was greater than 100 µM and the GI50 [28] was 0.27 µM. The TGI [28] was greater than 100 µM, the TGI [29] was greater than 100 µM and the GI50 [30] was 0.335 µM. It also gave a TGI [30] greater than 100 µM, a GI50 [31] of 0.407 µM and a TGI [31] greater than 100 µM. It also gave a GI50 [32] of 0.463 µM, a TGI [32] greater than 100 µM and a GI50 [33] of 0.318 µM. It also gave a TGI [33] greater than 100 µM, a GI50 [34] of 0.0749 µM and a TGI [34] greater than 100 µM. It also gave a GI50 [35] of 0.192 µM, a TGI [35] of 0.508 µM and a GI50 [36] of 0.0312 µM. For the same molecule, the TGI [36] was 0.113 µM, the GI50 [37] was 0.219 µM and the TGI [37] was 0.649 µM. It also gave a GI50 [38] of 0.273 µM, a TGI [38] greater than 100 µM and a GI50 [39] of 0.462 µM. It also gave a TGI [39] greater than 100 µM, a GI50 [40] of 0.506 µM and a TGI [40] greater than 100 µM. The GI50 [41] was 0.541 µM, the TGI [41] was greater than 100 µM and the GI50 [42] was 0.154 µM. The TGI [42] was 0.651 µM, the GI50 [43] was greater than 100 µM and the TGI [43] was greater than 100 µM. The GI50 [44] was 0.633 µM, the TGI [44] was greater than 100 µM and the GI50 [45] was 0.477 µM. The TGI [45] was greater than 100 µM, the GI50 [46] was 0.175 µM and the TGI [46] was 0.899 µM. The GI50 [47] was 0.437 µM, the TGI [47] was greater than 100 µM and the GI50 [48] was 0.205 µM. It also gave a TGI [48] greater than 100 µM, a GI50 [49] of 0.12 µM and a GI50 [50] of 0.508 µM. The TGI [50] was greater than 100 µM, the TGI [51] was greater than 100 µM and the GI50 [52] was 0.254 µM. It also gave a TGI [52] greater than 100 µM, a GI50 [53] of 0.757 µM and a TGI [53] greater than 100 µM. The GI50 [54] was 0.325 µM, the TGI [54] was 26.9 µM and the TGI [55] was greater than 100 µM. For the same molecule, the GI50 [56] was 0.59 µM, the TGI [56] was greater than 100 µM and the GI50 [57] was 0.518 µM. It also gave a TGI [57] greater than 100 µM, a GI50 [58] of 0.18 µM and a TGI [58] greater than 100 µM.

Source: PubChem BioAssay (NCI)
